Bridge positions count the residues as written; N and C are the ends. Square brackets hold non-standard residues; d marks the D form. Peptide text beside a SMILES is read from it. * marks the point of attachment. ξ: configuration not given here. Phe(4-COOH) = N[C@@H](Cc1ccc(C(=O)O)cc1)C(=O)O; dPhe(3,4-F2) = N[C@H](Cc1ccc(F)c(F)c1)C(=O)O; Bip = N[C@@H](Cc1ccc(-c2ccccc2)cc1)C(=O)O; Phe(3-Me) = Cc1cccc(C[C@H](N)C(=O)O)c1; Val(3-OH) = CC(C)(O)[C@H](N)C(=O)O; Cha = N[C@@H](CC1CCCCC1)C(=O)O; Ile(3ξ) = CCC(C)[C@H](N)C(=O)O; Thr(3ξ) = CC(O)[C@H](N)C(=O)O; Dap(Me) = CNC[C@H](N)C(=O)O; ξTle = CC(C)(C)C(N)C(=O)O; Carboxymethyl = O=C(O)C*; NMeA = CN[C@@H](C)C(=O)O; Nle = CCCC[C@H](N)C(=O)O; Orn = NCCC[C@H](N)C(=O)O; Dab = NCC[C@H](N)C(=O)O; Dap = NC[C@H](N)C(=O)O
The compounds below were run against T1, PE-labeled human PD-L1-Ig binding to Jurkat cell line over-expressing human PD-1 (Jurkat-PD-1) (Homo sapiens, UniProt Q15116) (assay: Jurkat-PD-1 Cell Binding High-Content Screening Assay (CBA): Method 1). Settings: Jurkat-hPD-1 cells, PE-labeled PD-L1-Ig 20 nM final; read-out: Jurkat HPDL1 PD1 IC50 (uM) (Method 1).
T1 construct: expressed in transfected cells; host or cells: Jurkat
T1 sequence (Q15116 25-288): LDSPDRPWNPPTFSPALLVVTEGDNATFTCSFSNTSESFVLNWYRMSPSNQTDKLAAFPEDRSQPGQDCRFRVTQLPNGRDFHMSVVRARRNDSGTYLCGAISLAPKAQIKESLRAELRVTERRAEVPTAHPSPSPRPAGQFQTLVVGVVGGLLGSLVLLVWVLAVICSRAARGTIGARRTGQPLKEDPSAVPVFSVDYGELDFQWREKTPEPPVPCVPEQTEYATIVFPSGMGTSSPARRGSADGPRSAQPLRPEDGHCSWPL

SMILES | IC50
Cc1cccc(C[C@@H]2NC(=O)[C@H](CC(=O)O)NC(=O)[C@H](Cc3ccc(OCC(=O)O)cc3)NC(=O)[C@H](C(C)O)NC(=O)CSC[C@@H](C(=O)N[C@@H](CCN)C(N)=O)NC(=O)[C@H](C(C)O)NC(=O)[C@H](C(C)(C)O)NC(=O)[C@H](CC3CCCCC3)NC(=O)[C@H](CCN)NC(=O)[C@@H](CC(C)C)NC(=O)[C@H](C)N(C)C(=O)[C@H](Cc3ccc(OCC(=O)O)cc3)NC(=O)[C@H](Cc3ccc(-c4ccccc4)cc3)NC(=O)[C@H](Cc3ccc(C(=O)O)cc3)NC2=O)c1 (stereo partly drawn) [Compound 2148] ({CH2CO}-[Thr(3ξ)]Y(Carboxymethyl)D[Phe(3-Me)][Phe(4-COOH)][Bip]Y(Carboxymethyl)[NMeA][dL][Dab][Cha][Val(3-OH)][Thr(3ξ)]C[Dab]-NH2; thioether N-14) | 0.01 µM
CC(C)C[C@@H]1NC(=O)[C@H](CCCCN)NC(=O)[C@@H](CC(C)C)NC(=O)[C@H](C)N(C)C(=O)[C@H](CCCNC(=N)N)NC(=O)[C@H](Cc2ccc(-c3ccccc3)cc2)NC(=O)[C@H](C(C)C)NC(=O)[C@H](Cc2c[nH]c3ccccc23)NC(=O)[C@H](CC(=O)O)NC(=O)[C@H](Cc2ccc(O)cc2)NC(=O)[C@H](Cc2ccccc2)NC(=O)CSC[C@@H](C(=O)N[C@@H](CCC(=O)O)C(N)=O)NC(=O)[C@H]([C@@H](C)O)NC(=O)[C@H](C(C)C)NC1=O [Compound 1168] ({CH2CO}-FYDWV[Bip]R[NMeA][dL]KLVTCE-NH2; thioether N-14) | 0.12 µM
CC(C)C[C@@H]1NC(=O)[C@H](CCN)NC(=O)[C@@H](CC(C)C)NC(=O)[C@H](C)N(C)C(=O)[C@H](Cc2cnc[nH]2)NC(=O)[C@H](Cc2ccc(-c3ccccc3)cc2)NC(=O)[C@H](C(C)C)NC(=O)[C@H](Cc2c[nH]c3ccccc23)NC(=O)[C@H](CC(=O)O)NC(=O)[C@H](Cc2ccc(OCC(=O)O)cc2)NC(=O)[C@H](CN)NC(=O)CSC[C@@H](C(=O)N[C@@H](C)C(N)=O)NC(=O)[C@H]([C@@H](C)O)NC(=O)[C@H](C(C)C)NC1=O [Compound 1438] ({CH2CO}-[Dap]Y(Carboxymethyl)DWV[Bip]H[NMeA][dL][Dab]LVTCA-NH2; thioether N-14) | 0.07 µM
CC(C)C[C@@H]1NC(=O)[C@H](Cc2c[nH]c3ccccc23)NC(=O)[C@H](CC(=O)O)NC(=O)[C@H](Cc2ccc(O)cc2)NC(=O)[C@H](Cc2ccccc2)NC(=O)CSC[C@@H](C(=O)N[C@@H](C)C(N)=O)NC(=O)[C@H](CO)NC(=O)[C@H](C(C)C)NC(=O)[C@H](CC(C)C)NC(=O)[C@H](CC(=O)O)NC(=O)C(C(C)(C)C)NC(=O)[C@H](C)N(C)C(=O)[C@H](C(C)C)NC(=O)[C@H](Cc2ccc(-c3ccccc3)cc2)NC1=O (some centres unmarked) [Compound 1827] ({CH2CO}-FYDWL[Bip]V[NMeA][ξTle]DLVSCA-NH2; thioether N-14) | 0.79 µM
CCCC[C@@H]1NC(=O)[C@H](CCN)NC(=O)[C@@H](CC(C)C)NC(=O)[C@H](C)N(C)C(=O)[C@H](CCCN)NC(=O)[C@H](Cc2ccc(-c3ccccc3)cc2)NC(=O)[C@H](C(C)C)NC(=O)[C@H](Cc2c[nH]c3ccccc23)NC(=O)[C@H](CC(=O)O)NC(=O)[C@H](Cc2ccc(O)cc2)NC(=O)[C@H](CC(N)=O)NC(=O)CSC[C@@H](C(=O)N[C@@H](C)C(N)=O)NC(=O)[C@H]([C@@H](C)O)NC(=O)[C@H](C(C)C)NC1=O [Compound 1267] ({CH2CO}-NYDWV[Bip][Orn][NMeA][dL][Dab][Nle]VTCA-NH2; thioether N-14) | 0.26 µM
CC(C)C[C@@H]1NC(=O)[C@H](Cc2c[nH]c3ccccc23)NC(=O)[C@H](CC(=O)O)NC(=O)[C@H](Cc2ccc(O)cc2)NC(=O)[C@H](Cc2ccccc2)NC(=O)CSC[C@@H](C(=O)NCC(N)=O)NC(=O)[C@H](CO)NC(=O)[C@H](C(C)C)NC(=O)[C@H](CC(C)C)NC(=O)[C@H](CC(N)=O)NC(=O)[C@@H](CC(C)C)NC(=O)[C@H](C)N(C)C(=O)[C@H](CCC(=O)O)NC(=O)[C@H](Cc2ccc(-c3ccccc3)cc2)NC1=O [Compound 1510] ({CH2CO}-FYDWL[Bip]E[NMeA][dL]NLVSCG-NH2; thioether N-14) | 0.06 µM
CC(C)C[C@@H]1NC(=O)[C@H](CCN)NC(=O)[C@@H](CC(C)C)NC(=O)[C@H](C)N(C)C(=O)[C@H](C(C)C)NC(=O)[C@H](Cc2ccc(-c3ccccc3)cc2)NC(=O)[C@H](C(C)C)NC(=O)[C@H](Cc2c[nH]c3ccccc23)NC(=O)[C@H](CC(=O)O)NC(=O)[C@H](Cc2ccc(O)cc2)NC(=O)[C@H](CCCNC(=N)N)NC(=O)CSC[C@@H](C(=O)N[C@@H](C)C(N)=O)NC(=O)[C@H]([C@@H](C)O)NC(=O)[C@H](C(C)C)NC1=O [Compound 1394] ({CH2CO}-RYDWV[Bip]V[NMeA][dL][Dab]LVTCA-NH2; thioether N-14) | 0.01 µM
CC(C)C[C@@H]1NC(=O)[C@H](CCCNC(=N)N)NC(=O)[C@@H](CC(C)C)NC(=O)[C@H](C)N(C)C(=O)[C@H](CCCNC(=N)N)NC(=O)[C@H](Cc2ccc(-c3ccccc3)cc2)NC(=O)[C@H](C(C)C)NC(=O)[C@H](Cc2c[nH]c3ccccc23)NC(=O)[C@H](CC(=O)O)NC(=O)[C@H](Cc2ccc(O)cc2)NC(=O)[C@H](Cc2ccccc2)NC(=O)CSC[C@@H](C(=O)N[C@@H](C)C(N)=O)NC(=O)[C@H](CO)NC(=O)[C@H](C(C)C)NC1=O [Compound 1035] ({CH2CO}-FYDWV[Bip]R[NMeA][dL]RLVSCA-NH2; thioether N-14) | 0.08 µM
CCC(C)[C@@H]1NC(=O)[C@H](Cc2ccc(-c3ccccc3)cc2)NC(=O)[C@H](C(C)C)NC(=O)[C@H](Cc2c[nH]c3ccccc23)NC(=O)[C@H](CC(=O)O)NC(=O)[C@H](Cc2ccc(OCC(=O)O)cc2)NC(=O)[C@H](CNC)NC(=O)CSC[C@@H](C(=O)N[C@@H](CC(N)=O)C(N)=O)NC(=O)[C@H](C(C)O)NC(=O)[C@H](C(C)C)NC(=O)[C@H](CC2CCCCC2)NC(=O)[C@H](CN)NC(=O)[C@@H](CC(C)C)NC(=O)[C@H](C)N(C)C1=O (stereo partly drawn) [Compound 2078] ({CH2CO}-[Dap(Me)]Y(Carboxymethyl)DWV[Bip][Ile(3ξ)][NMeA][dL][Dap][Cha]V[Thr(3ξ)]CN-NH2; thioether N-14) | 0.02 µM
CC(C)C[C@@H]1NC(=O)[C@H](CCCCN)NC(=O)[C@@H](CC(C)C)NC(=O)[C@H](C)N(C)C(=O)[C@H](C(C)C)NC(=O)[C@H](Cc2ccc(-c3ccccc3)cc2)NC(=O)[C@H](C(C)C)NC(=O)[C@H](Cc2c[nH]c3ccccc23)NC(=O)[C@H](CC(=O)O)NC(=O)[C@H](Cc2ccc(O)cc2)NC(=O)[C@H](CC(N)=O)NC(=O)CSC[C@@H](C(=O)N[C@@H](C)C(N)=O)NC(=O)[C@H]([C@@H](C)O)NC(=O)[C@H](C(C)C)NC1=O [Compound 1299] ({CH2CO}-NYDWV[Bip]V[NMeA][dL]KLVTCA-NH2; thioether N-14) | 0.02 µM
CC(C)C[C@@H]1NC(=O)[C@H](CCCNC(=N)N)NC(=O)[C@@H](Cc2ccc(F)c(F)c2)NC(=O)[C@H](C)N(C)C(=O)[C@H](CCCNC(=N)N)NC(=O)[C@H](Cc2ccc(-c3ccccc3)cc2)NC(=O)[C@H](C(C)C)NC(=O)[C@H](Cc2c[nH]c3ccccc23)NC(=O)[C@H](CC(=O)O)NC(=O)[C@H](Cc2ccc(O)cc2)NC(=O)[C@H](Cc2ccccc2)NC(=O)CSC[C@@H](C(=O)N[C@@H](C)C(N)=O)NC(=O)[C@H]([C@@H](C)O)NC(=O)[C@H](C(C)C)NC1=O [Compound 1103] ({CH2CO}-FYDWV[Bip]R[NMeA][dPhe(3,4-F2)]RLVTCA-NH2; thioether N-14) | 0.69 µM
